Test results reported in patent US8101368B2, “Quantitation of cellular DNA and cell numbers using element labeling” (DVS Sciences Inc., priority 2006, dated 2012).
Each block holds one compound with its values, some of them ahead of it.

Tests used:
KG-1a cells = experiment: Viability with trypan blue of cells cultured in Pd-supplemented media; type: cell-based; conditions: 500 ppb Pd in growth media, 72 hours
Protocol: (§1) The experiment was set up to investigate if metals passively accumulated by cells could be indicative of cell number and cell type. For this purpose two different leukemia cell lines were cultured for 72 hours in growth media supplemented with very low amounts of rare earth metals: 100 ppb Rh was added to MBA-1 cells, and 500 ppb Pd was added to KG-1a cells which express the cell surface marker. During the three days of cell culture, aliquots of cells were tested for viability with trypan blue. […] Cells were collected by centrifugation (1200 rpm, 10 minutes), washed once in PBS/10% FBS and counted in a hemocytometer. Serial dilutions were prepared to give 1×10^6, 0.5×10^6, 1×10^5, 1×10^4, 1×10^3, and 1×10^2 KG-1a cells in a population of MBA-1 cells (1×10^6) per tube in triplicates (Table 1). In this example Pd will reflect the number of KG-1a cells and the presence of surface marker CD34 will specify the cell type, while MBA-1 cells are marked by Rh. Immunolabeling was carried out by adding anti-CD34 antibodies to tubes containing decreasing amounts of live KG-1a cells and incubating for 45 minutes on ice. Negative control tubes were reacted with the IgG1 isotype control immunoglobulins. After three low speed centrifugation washes with PBS/10% FBS all samples were incubated with biotinylated anti-mouse antibodies. […]

MBA-1 cells [1] = experiment: Viability with trypan blue of cells cultured in Rh-supplemented media; type: cell-based; conditions: 100 ppb Rh in growth media, 72 hours
Protocol: as §1

DNA = conditions: rhodium/base pair ratios of 2:1; cited from earlier work
MBA-1 cells [2] = experiment: Binding of increasing concentrations of Rh(III) intercalator to fixed/permeabilized cells, ICP-MS; type: cell-based; conditions: 2.5 nanoM to 250 microM, 45 minutes, 1×10^6 fixed/permeabilized cells; linear response
Protocol: Binding of an intercalator to DNA is governed by the law of mass action. Assuming that a mammalian cell in G1 phase has 3.3×10^9 DNA base pairs of which only 10-70% are free from protein interaction (nucleosomes) and available for binding with the intercalator (one molecule per two base pairs at saturation), the number of molecules of dye needed is approximately 1-10×10^8. Thus for [Rh(phi)2bpy]Cl3, with 671 MW, 1 ml of 200 uM solution should be 100-fold excess of intercalator over DNA binding sites for 1×10^6 cells. The binding of various amounts of the Rh(III) intercalator with cultured cells was assessed. MBA-1 cells were fixed in 3.7% formaldehyde/PBS for 15 minutes, followed by permeabilization with 0.3% TRITON™ X-100/PBS; washed once with PBS and incubated for 45 minutes with 1 ml of increasing concentrations of [Rh(phi)2bpy]Cl3 from 2.5 nanoM to 250 microM. Each sample contained 1×10^6 cells, run in triplicates. Following washing, the cell pellets were treated with concentrated HCl, mixed with an equal volume of 1 ppb Ir internal standard, and analyzed in solution by ICP-MS.

MBA-1 cells [3] = system: MBA-1 cells
Protocol: Reactivity of the Rh(III) metallointercalator with fixed and fixed/permeabilized versus live cells was also examined. Equal amounts of MBA-1 cells (1×10^6) were either fixed/permeabilized as above, fixed in 3.7% formaldehyde alone or left untreated (live cells). After two washes in PBS the cells were incubated with 200 uM [Rh(phi)2bpy]Cl3 for 30 minutes; washed three more times and dissolved in HCl.

K562 cells = experiment: Cell cycle synchronization checked by propidium iodide flow cytometry; type: cell-based
Protocol: Cells were synchronized in G1/S and G2/M phases of the cell cycle using a DNA synthesis inhibitor, thymidine, followed by a mitotic inhibitor, nocodazole. The DNA content of the G0/G1 phase is centered at 2n. Treatment with double thymidine results in a G1/S-phase arrested cell population with approximately […]. Nocodazole addition following a single thymidine treatment arrests cells in the G2/M stage with 4n DNA content. K562 cells were treated with 2 mM thymidine added to culture medium for 17 hours. The cells were then washed and incubated in fresh media for 9 hours. At the end of this rest period the culture was split into two flasks—one received the second dose of 2 mM thymidine (double thymidine block) to arrest cells at G1/S; the other—0.2 ug/ml nocodazole (single thymidine-nocodazole block) to arrest cells at the M phase. The inhibitors were left in culture media for 17 hours. […] After several washes the cells were digested in concentrated HCl and analyzed by ICP-MS. […] Treatment of stained cells with enzymes shifts the detected Rh values due to enhanced binding of metallointercalator to naked DNA. […] In the case of RNAse A treatment—degradation of small RNA molecules bound to DNA such as siRNA that may block interaction of intercalator and DNA may lead to higher detected Rh values.

Structure (SMILES): [Pd] [Pd, palladium]
- Cell death due to presence of metal in media (KG-1a cells): No excessive cell death

Structure (SMILES): [Rh] [Rh, rhodium]
- Cell death due to presence of metal in media (MBA-1 cells [1]): No excessive cell death

- Membrane permeability in live cells (MBA-1 cells [3]): membrane impermeable
Structure (SMILES): [Cl-].[Cl-].[Cl-].[NH-]c1c([NH-])c2ccccc2c2ccccc12.[NH-]c1c([NH-])c2ccccc2c2ccccc12.[Rh].c1ccc(-c2ccccn2)nc1 [[Rh(phi)2bpy]Cl3]
- Sequence dependence of binding to DNA (DNA): sequence neutral and random
- Saturation of DNA binding (normalized Rh signal response) (MBA-1 cells [2]): without reaching a saturation limit

Structure (SMILES): COC(=O)Nc1nc2ccc(C(=O)c3cccs3)cc2[nH]1 [nocodazole]
- Cell cycle phase after block (K562 cells; single thymidine-nocodazole block, 0.2 ug/ml nocodazole, 17 hours): practically all cells were in M phase

Structure (SMILES): Cc1cn([C@H]2C[C@H](O)[C@@H](CO)O2)c(=O)[nH]c1=O [thymidine]
- Cell cycle phase after block (K562 cells; double thymidine block, 2 mM, 17 hours each): majority of cells were in G1/S
